Consider seven molecules from patent US20200172529A1, “Chemical Compound, Pharmaceutical Composition Thereof, and Use and Application Thereof” (Beijing Hanmi Pharm. Co., Ltd., priority 2017, published 2020).

By IC50 is commonly meant the point on the concentration scale where inhibition reaches its midpoint.

What all share (format): biochemical
The target in one assay is T1, TYK2 kinase (Homo sapiens, UniProt P29597).
T1 construct: purchased Life Technologies PR8440C
The assay can be described thus: Inhibition assay of TYK2 kinase activity (ADP-Glo Kinase Assay). In a few lines: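 Enzyme at 0.8 ng/mL (2-fold final) in 40 mM Tris-HCl pH 7.5, 20 mM MgCl2, 0.1 mg/mL BSA, 1 mM DTT, preincubated 10 min with compound (6 points, 10-fold dilutions from 10 μM). ATP plus polyE4Y1 then added for 60 min at room temperature. ADP-Glo luminescence read and IC50 derived.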
A general note: ADP-Glo turns the ADP formed in a reaction into a luminescent signal.

For a further assay, the target named is JAK2 kinase (Homo sapiens, UniProt O60674). Kind of assay: Inhibition assay of JAK2 kinase activity (ADP-Glo Kinase Assay). The text has this:
Inhibition assay of JAK2 kinase activity: the method in ADP-Glo™ Kinase Assay (Promega, V9102) was used to determine the inhibitory activity of the test compounds against JAK2 kinase.

Another assay has as its target JAK1 kinase (Homo sapiens, UniProt P23458). Kind of assay: Inhibition assay of JAK1 kinase activity (ADP-Glo Kinase Assay). The text has this:
Inhibition assay of JAK1 kinase activity: the method in ADP-Glo™ Kinase Assay (Promega, V9102) was used to determine the inhibitory activity of the test compounds against JAK1 kinase.

The target of a further assay is SYK kinase (Homo sapiens, UniProt P43405). Kind of assay: Inhibition assay of SYK kinase activity (ADP-Glo Kinase Assay). The text has this: Inhibition assay of SYK kinase activity: the method in ADP-Glo™ Kinase Assay (Promega, V9102) was used to determine the inhibitory activity of the test compounds against SYK kinase.
Another assay concerns the target T2, JAK3 kinase (Homo sapiens, UniProt P52333).
T2 sequence (P52333 1-1124): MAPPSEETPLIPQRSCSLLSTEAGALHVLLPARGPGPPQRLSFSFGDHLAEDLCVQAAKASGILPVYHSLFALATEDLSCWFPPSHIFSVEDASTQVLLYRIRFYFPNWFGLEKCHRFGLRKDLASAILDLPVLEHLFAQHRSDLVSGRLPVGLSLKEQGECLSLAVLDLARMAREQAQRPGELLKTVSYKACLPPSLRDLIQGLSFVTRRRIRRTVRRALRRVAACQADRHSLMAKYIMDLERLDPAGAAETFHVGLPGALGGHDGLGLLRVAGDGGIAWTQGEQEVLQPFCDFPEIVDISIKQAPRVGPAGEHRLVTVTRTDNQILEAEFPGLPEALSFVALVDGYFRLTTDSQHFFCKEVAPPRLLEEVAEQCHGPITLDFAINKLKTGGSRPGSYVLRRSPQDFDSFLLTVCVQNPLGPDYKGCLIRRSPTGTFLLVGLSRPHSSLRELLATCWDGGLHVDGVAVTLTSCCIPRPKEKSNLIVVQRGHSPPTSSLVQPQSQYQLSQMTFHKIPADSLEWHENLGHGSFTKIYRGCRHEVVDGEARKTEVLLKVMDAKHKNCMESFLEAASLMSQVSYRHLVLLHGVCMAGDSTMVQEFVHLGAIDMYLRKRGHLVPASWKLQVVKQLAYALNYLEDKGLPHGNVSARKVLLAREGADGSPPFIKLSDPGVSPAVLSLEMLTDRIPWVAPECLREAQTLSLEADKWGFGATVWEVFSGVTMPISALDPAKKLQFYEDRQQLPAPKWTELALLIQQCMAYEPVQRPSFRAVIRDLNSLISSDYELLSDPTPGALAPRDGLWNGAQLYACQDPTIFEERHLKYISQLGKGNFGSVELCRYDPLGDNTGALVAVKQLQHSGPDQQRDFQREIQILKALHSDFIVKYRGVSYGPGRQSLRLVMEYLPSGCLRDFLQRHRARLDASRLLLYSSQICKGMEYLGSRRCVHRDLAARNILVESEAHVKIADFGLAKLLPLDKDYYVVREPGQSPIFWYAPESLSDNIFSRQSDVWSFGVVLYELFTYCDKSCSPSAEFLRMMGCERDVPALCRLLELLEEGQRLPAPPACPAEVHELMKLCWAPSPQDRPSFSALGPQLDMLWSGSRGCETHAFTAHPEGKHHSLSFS
The assay can be described thus: Inhibition assay of JAK3 kinase activity (ADP-Glo Kinase Assay). From the text: Inhibition assay of JAK3 kinase activity: the method in ADP-Glo™ Kinase Assay (Promega, V9102) was used to determine the inhibitory activity of the test compounds against JAK3 kinase.

JAK2 kinase, sequence (O60674 whole entry): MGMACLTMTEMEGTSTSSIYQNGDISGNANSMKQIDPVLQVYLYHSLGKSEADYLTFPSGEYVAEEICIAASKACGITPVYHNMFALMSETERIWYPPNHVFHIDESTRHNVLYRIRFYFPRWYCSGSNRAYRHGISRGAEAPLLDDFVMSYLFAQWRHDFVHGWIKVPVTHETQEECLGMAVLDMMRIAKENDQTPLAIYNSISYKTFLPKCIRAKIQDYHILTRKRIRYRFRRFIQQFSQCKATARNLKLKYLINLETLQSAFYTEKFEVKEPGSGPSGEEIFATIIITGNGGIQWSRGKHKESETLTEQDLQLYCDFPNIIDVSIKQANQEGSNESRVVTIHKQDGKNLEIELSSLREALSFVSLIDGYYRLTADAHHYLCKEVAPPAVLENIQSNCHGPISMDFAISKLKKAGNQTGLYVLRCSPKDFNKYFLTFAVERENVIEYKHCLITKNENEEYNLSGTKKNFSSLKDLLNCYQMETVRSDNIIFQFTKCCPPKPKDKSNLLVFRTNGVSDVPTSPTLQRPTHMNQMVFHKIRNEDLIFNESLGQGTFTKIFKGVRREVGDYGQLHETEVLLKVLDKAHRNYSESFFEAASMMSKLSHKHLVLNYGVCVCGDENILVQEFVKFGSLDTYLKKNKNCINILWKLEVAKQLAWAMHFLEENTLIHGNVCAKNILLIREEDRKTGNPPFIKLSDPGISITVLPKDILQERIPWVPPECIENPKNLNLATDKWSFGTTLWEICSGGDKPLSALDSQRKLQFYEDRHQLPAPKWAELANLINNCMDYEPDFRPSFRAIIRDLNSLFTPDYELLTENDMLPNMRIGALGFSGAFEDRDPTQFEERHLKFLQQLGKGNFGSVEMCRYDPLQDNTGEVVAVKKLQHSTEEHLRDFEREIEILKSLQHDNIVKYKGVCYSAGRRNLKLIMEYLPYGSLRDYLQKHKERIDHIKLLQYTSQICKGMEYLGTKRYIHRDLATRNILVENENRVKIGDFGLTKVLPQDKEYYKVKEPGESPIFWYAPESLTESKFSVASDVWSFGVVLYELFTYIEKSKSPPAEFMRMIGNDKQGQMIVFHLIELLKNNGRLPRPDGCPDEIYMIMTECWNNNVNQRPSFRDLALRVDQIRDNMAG
T1 sequence (P29597 whole entry): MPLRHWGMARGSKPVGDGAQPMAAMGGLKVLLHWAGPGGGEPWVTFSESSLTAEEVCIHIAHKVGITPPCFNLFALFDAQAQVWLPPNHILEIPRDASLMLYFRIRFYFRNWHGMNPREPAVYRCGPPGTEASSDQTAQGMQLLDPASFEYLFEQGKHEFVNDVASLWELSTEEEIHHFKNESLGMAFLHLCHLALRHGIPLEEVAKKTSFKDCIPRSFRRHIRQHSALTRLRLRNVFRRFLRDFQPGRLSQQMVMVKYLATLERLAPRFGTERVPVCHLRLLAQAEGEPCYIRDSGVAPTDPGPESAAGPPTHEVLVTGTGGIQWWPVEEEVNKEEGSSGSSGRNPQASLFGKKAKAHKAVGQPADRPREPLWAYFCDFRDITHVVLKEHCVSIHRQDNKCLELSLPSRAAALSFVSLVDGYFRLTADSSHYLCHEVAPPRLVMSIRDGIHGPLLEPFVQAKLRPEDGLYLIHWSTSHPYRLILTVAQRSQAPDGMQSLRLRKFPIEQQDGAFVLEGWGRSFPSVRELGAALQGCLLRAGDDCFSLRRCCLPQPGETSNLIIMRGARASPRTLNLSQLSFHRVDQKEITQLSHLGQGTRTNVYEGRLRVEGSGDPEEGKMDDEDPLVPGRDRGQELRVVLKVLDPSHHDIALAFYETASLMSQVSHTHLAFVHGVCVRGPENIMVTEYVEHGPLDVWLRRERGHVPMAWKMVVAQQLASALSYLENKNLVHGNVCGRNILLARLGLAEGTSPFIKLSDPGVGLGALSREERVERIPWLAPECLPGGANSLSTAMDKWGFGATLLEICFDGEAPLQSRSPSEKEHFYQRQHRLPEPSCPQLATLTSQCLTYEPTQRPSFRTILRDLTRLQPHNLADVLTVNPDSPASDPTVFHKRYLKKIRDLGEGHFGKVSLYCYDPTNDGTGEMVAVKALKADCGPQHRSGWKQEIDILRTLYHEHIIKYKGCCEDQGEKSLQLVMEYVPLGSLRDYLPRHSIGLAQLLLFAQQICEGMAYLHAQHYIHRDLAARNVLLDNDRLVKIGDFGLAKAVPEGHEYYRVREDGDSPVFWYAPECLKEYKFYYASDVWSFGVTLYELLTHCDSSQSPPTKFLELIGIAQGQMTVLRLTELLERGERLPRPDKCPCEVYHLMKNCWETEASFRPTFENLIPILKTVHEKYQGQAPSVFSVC
JAK1 kinase, sequence (P23458 whole entry): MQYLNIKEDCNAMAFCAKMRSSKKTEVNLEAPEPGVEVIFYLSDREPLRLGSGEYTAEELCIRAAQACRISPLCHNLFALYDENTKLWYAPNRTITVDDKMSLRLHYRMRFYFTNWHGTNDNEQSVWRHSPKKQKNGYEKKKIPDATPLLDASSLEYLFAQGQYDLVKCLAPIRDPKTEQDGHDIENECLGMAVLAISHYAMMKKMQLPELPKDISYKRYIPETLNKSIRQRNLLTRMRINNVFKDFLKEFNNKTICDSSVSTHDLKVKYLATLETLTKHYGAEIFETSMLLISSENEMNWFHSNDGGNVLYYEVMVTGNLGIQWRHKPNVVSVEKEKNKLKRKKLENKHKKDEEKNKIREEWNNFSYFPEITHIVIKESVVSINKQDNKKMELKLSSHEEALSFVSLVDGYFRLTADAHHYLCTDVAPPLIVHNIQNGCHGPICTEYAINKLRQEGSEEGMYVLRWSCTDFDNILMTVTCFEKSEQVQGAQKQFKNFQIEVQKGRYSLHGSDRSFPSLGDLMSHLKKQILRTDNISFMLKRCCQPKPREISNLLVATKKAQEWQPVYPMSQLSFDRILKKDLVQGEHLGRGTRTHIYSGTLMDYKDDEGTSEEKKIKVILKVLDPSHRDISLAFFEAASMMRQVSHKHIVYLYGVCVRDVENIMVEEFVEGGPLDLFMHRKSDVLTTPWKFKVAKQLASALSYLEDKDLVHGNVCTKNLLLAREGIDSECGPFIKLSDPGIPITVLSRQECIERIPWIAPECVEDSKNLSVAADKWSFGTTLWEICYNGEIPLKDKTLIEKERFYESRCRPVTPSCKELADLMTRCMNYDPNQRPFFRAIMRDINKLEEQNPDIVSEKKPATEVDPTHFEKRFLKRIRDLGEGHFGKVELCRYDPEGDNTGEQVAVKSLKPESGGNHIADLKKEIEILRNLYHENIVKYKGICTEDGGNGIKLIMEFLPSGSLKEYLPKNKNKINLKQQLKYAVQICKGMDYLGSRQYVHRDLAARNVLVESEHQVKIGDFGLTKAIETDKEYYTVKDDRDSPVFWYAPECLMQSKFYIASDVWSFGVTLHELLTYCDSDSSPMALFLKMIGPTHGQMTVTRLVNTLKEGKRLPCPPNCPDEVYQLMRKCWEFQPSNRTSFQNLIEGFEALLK

`CCCNc1nc(Nc2ccc3c(c2)NC[C@H](O)CO3)ncc1C(N)=O` [Example 69, 4-(propylamino)-2-(((S)-2,3,4,5-tetrahydro-3-hydroxybenzo[b][1,4]oxazepin-7-yl)amino)pyrimidin-5-carboxamide]: the 50% inhibitory concentration (IC50) against TYK2 kinase is less than 10 nM; at JAK2 kinase it was 10 to 100 nM; at JAK1 kinase it was less than 10 nM; against SYK kinase it was 10 to 100 nM; on JAK3 kinase it was 10 to 100 nM.

As to `NC(=O)c1cnc(Nc2ccc3c(c2)NC[C@H](O)CO3)nc1NC1CC1F` (stereo partly drawn) [Example 57, 4-((2-fluorocyclopropyl)amino)-2-(((S)-2,3,4,5-tetrahydro-3-hydroxybenzo[b][1,4]oxazepin-7-yl)amino)pyrimidin-5-carboxamide], the 50% inhibitory concentration (IC50) is less than 10 nM on TYK2 kinase; 10 to 100 nM against JAK2 kinase; less than 10 nM at JAK1 kinase; 10 to 100 nM on SYK kinase; 10 to 100 nM against JAK3 kinase.

Turning to `CO[C@@H]1CNc2cc(Nc3ncc(C(N)=O)c(NC4CC4)n3)ccc2OC1` [Example 80, 4-(cyclopropylamino)-2-(((R)-2,3,4,5-tetrahydro-3-methoxybenzo[b][1,4]oxazepin-7-yl)amino)pyrimidin-5-carboxamide], the IC50 on TYK2 kinase is less than 10 nM; on JAK2 kinase, less than 10 nM; against JAK1 kinase, 10 to 100 nM; at SYK kinase, 10 to 100 nM; against JAK3 kinase, less than 10 nM.

For the molecule `NC(=O)c1cnc(Nc2ccc3c(c2)NC[C@H](OCC2CCCO2)CO3)nc1NC1CC1` (stereo partly drawn) [Example 97, 4-(cyclopropylamino)-2-(((S)-2,3,4,5-tetrahydro-3-((tetrahydrofuran-2-yl)methoxy)benzo[b][1,4]oxazepin-7-yl)amino)pyrimidin-5-carboxamide], the IC50 on TYK2 kinase is less than 10 nM; on JAK2 kinase it was 10 to 100 nM; against JAK1 kinase, less than 10 nM; against SYK kinase, 10 to 100 nM; against JAK3 kinase, 10 to 100 nM.

With `NC(=O)c1cnc(Nc2ccc3c(c2)NC[C@@H](O)CO3)nc1NC1CC1` [Example 25, (R)-4-(cyclopropylamino)-2-((3-hydroxy-2,3,4,5-tetrahydro-benzo[b][1,4]oxazepin-7-yl)amino)pyrimidin-5-carboxamide], the IC50 was less than 10 nM against TYK2 kinase; less than 10 nM against JAK2 kinase; 10 to 100 nM against JAK1 kinase; 10 to 100 nM at SYK kinase; less than 10 nM on JAK3 kinase.

`[2H]C([2H])([2H])O[C@H]1CNc2cc(Nc3ncc(C(N)=O)c(NC4CC4)n3)ccc2OC1` [Example 87, 4-(cyclopropylamino)-2-(((S)-2,3,4,5-tetrahydro-3-(trideuteromethoxy)benzo[b][1,4]oxazepin-7-yl)amino)pyrimidin-5-carboxamide]: the IC50 was less than 10 nM against TYK2 kinase; less than 10 nM at JAK2 kinase; less than 10 nM at JAK1 kinase; 10 to 100 nM at SYK kinase; 10 to 100 nM against JAK3 kinase.

With `CC1(CO[C@H]2CNc3cc(Nc4ncc(C(N)=O)c(NC5CC5)n4)ccc3OC2)COC1` [Example 101, 4-(cyclopropylamino)-2-(((S)-2,3,4,5-tetrahydro-3-((3-methyloxetan-3-yl)methoxy)benzo[b][1,4]oxazepin-7-yl)amino)pyrimidin-5-carboxamide], the half-inhibitory concentration (IC50) was less than 10 nM against TYK2 kinase; 10 to 100 nM against JAK2 kinase; less than 10 nM against JAK1 kinase; 10 to 100 nM against SYK kinase; 10 to 100 nM against JAK3 kinase.
